Results as given in paper PMC3362318 (Invertebrate Neuroscience, 2012).

Columns and labels:
[1] = target: T1, Hco-L-AChR1 (Haemonchus contortus, UniProt A9XX24+D6MYE9+D6MYF3+D6MYF4); conditions: agonist; 30 μM; -60 mV, 1 mM external CaCl2, pH 7.3, BAPTA-AM treated
[2] = target: T2, Hco-L-AChR2 (Haemonchus contortus, UniProt D6MYE9+D6MYF3+D6MYF4); test: two-electrode voltage clamp, Xenopus oocytes, peak current; assay type: cell-based; conditions: agonist; -60 mV, 1 mM external CaCl2, pH 7.3, BAPTA-AM treated
T2 sequence (D6MYE9 21-498): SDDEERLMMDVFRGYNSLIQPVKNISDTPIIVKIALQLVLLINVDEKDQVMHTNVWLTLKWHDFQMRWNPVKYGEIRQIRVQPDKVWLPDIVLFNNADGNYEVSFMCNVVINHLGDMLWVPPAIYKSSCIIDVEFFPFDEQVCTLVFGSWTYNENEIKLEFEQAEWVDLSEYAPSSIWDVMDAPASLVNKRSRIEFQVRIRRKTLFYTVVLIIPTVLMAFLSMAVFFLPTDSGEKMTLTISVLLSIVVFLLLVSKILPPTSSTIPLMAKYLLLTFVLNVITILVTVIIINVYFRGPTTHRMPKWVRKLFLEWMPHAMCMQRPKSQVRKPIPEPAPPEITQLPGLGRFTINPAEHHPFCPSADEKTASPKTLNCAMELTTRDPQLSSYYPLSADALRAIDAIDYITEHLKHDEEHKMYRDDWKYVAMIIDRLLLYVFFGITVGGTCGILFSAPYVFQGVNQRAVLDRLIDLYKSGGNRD
T2 sequence (D6MYF3 20-512): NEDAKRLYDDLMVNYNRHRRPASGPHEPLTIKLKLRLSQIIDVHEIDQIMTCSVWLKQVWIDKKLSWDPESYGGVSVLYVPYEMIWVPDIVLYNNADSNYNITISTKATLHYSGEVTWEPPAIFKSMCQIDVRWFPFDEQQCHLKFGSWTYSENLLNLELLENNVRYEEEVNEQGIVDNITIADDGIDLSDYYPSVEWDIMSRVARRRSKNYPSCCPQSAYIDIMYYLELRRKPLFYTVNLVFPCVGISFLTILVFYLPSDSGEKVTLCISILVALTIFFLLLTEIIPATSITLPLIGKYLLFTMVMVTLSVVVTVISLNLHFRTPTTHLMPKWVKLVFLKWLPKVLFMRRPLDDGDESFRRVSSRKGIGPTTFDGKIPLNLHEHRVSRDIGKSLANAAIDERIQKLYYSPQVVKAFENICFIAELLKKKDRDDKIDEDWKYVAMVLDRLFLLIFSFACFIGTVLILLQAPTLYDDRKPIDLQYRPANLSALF
T2 sequence (D6MYF4 22-504): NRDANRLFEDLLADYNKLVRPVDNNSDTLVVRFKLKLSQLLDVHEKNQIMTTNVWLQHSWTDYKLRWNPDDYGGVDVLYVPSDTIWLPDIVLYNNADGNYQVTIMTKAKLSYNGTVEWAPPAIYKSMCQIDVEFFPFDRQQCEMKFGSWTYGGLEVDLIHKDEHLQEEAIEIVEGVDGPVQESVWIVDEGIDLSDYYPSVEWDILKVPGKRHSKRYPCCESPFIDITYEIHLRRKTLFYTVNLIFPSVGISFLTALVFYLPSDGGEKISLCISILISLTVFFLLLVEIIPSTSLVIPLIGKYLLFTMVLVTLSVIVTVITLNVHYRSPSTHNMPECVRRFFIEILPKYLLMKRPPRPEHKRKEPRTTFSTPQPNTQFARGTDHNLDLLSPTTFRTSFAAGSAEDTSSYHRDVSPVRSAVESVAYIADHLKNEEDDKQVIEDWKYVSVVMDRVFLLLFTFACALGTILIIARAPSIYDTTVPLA

[3] = target: T1, Hco-L-AChR1; test: two-electrode voltage clamp, Xenopus oocytes, dose-response; assay type: cell-based

T1 sequence (A9XX24 19-536, one chain of several): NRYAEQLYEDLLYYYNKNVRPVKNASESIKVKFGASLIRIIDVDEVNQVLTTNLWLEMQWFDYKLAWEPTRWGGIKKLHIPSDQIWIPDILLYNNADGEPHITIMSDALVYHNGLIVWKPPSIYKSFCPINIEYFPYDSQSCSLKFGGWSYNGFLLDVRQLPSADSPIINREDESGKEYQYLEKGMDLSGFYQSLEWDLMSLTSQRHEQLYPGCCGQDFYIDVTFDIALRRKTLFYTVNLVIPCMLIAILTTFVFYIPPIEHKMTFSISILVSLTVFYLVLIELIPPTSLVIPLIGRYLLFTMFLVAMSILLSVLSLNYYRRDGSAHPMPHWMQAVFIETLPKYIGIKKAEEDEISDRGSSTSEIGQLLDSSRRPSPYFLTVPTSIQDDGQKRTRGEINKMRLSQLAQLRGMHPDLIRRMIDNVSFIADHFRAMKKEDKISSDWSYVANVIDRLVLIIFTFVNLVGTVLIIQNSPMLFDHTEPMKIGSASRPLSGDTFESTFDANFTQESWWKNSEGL

CN1CCCN=C1/C=C/c1cccs1 [Pyr, pyrantel]
two-electrode voltage clamp, Xenopus oocytes, peak current [1]: levamisole > acetylcholine > pyrantel > nicotine for the Hco-L-AChR1
two-electrode voltage clamp, Xenopus oocytes, peak current [2]: Hco-L-AChR2 potency series was: pyrantel > acetylcholine > nicotine > levamisole

c1ccc([C@H]2CN3CCSC3=N2)cc1 [Lev, levamisole]
EC50 [3]: 6.08 ± 0.3 µM
two-electrode voltage clamp, Xenopus oocytes, peak current [2]: Hco-L-AChR2 potency series was: pyrantel > acetylcholine > nicotine > levamisole

CN1CCC[C@H]1c1cccnc1 [Nic, nicotine]
two-electrode voltage clamp, Xenopus oocytes, peak current [2]: Hco-L-AChR2 potency series was: pyrantel > acetylcholine > nicotine > levamisole

C[N+](C)(CCOc1ccccc1)Cc1ccccc1 [Beph, bephenium]
EC50 [3]: 7.7 ± 0.6 µM
